Laboratory results reported in US10919902B2, “Hetero-halo inhibitors of histone deacetylase” (Alkermes, Inc., priority 2015, dated 2021).

The compounds below were run against recombinant human HDACs (Homo sapiens) (assay: HDAC enzymatic assay). Conditions: 5 nM HDAC enzyme, 5 h pre-incubation, 17 h reaction at 25° C.; isoform not given.
Type: biochemical
Description: All recombinant human HDACs were purchased from BPS Bioscience. The substrate, FAM-TSRHK(AC)KL-CONH, was synthesized at NanoSyn. Final assay reactions contained 100 mM HEPES (pH 7.5), 50 mM KCl, 0.1% BSA, 0.01% Triton X-100, 1% DMSO, 1 uM substrate and 5 nM HDAC enzyme. Enzyme and compounds were pre-incubated at 25° C. for 5 hours and reactions were initiated by addition of substrate. 10 uL reactions were incubated for 17 hours at 25° C. and terminated by the addition of 40 uL of buffer containing 100 mM HEPES (pH 7.5), 0.1% BSA, 0.01% Triton X-100 and 0.05% SDS. Substrate and product peptides present in each sample were separated electrophoretically using the LabChip 3000 capillary electrophoresis instrument. Change in the relative fluorescence intensity of the substrate and product peaks reflects enzyme activity. Reaction progress was determined as the product to sum ratio (PSR):P/(S+P), where P is the peak height of the product peptide and S is the peak height of the substrate peptide. Reactions were performed in duplicate at 12 concentrations, (3× serial dilutions starting at 30 uM). IC50 values were calculated using a 4 Parameter Logistic Model.

Row | Structure (SMILES) | IC50 [µM]
1 | COCc1cc2c(cn1)CN(C(=O)Nc1nc(-c3ccc(F)cc3)ccc1N)C2 [Compound 243] | 0.1 to 0.5
2 | Cn1cc2c(n1)CN(C(=O)Nc1nc(-c3ccc(F)cc3)ccc1N)C2 [Compound 257] | 0.1 to 0.5

Same assay, conditions: 5 nM HDAC enzyme, 5 h pre-incubation, 17 h reaction at 25° C.; isoform not given; read-out: IC50

Row | Structure (SMILES) | IC50 [µM]
3 | Nc1ccc(-n2cccn2)nc1NC(=O)C1CN(Cc2ccccc2)C1 [Compound 205] | > 5
4 | CN1CCn2cc(C(=O)Nc3nc(-c4ccccc4)ccc3N)nc2C1 [Compound 206] | 0.5 to 5
5 | Nc1ccc(-c2ccccc2)nc1NC(=O)c1cn2c(n1)CNCC2 [Compound 208] | 0.5 to 5
6 | CN1CCC2(CC1)CCN(C(=O)Nc1nc(-c3cccnc3)ccc1N)C2 [Compound 210] | > 5
7 | CN1CCCC2(CCN(C(=O)Nc3nc(-c4cccnc4)ccc3N)C2)C1 (stereo not shown) [Compound 211] | > 5
8 | Nc1ccc(-c2ccccc2)nc1NC(=O)N1CCn2cncc2C1 [Compound 212] | > 5
9 | Nc1ccc(-c2cccnc2)nc1NC(=O)N1Cc2nccnc2C1 [Compound 214] | 0.5 to 5
10 | Cn1cc(CN2CCC3(CC2)CCN(C(=O)Nc2nc(-c4cccnc4)ccc2N)C3)cn1 [Compound 215] | > 5
11 | Nc1ccc(-c2cccnc2)nc1NC(=O)N1Cc2cc(F)cnc2C1 [Compound 218] | > 5
12 | Nc1ccc(-c2cccnc2)nc1NC(=O)c1cn2c(n1)CNCC2 [Compound 219] | > 5
13 | Nc1ccc(-c2cccnc2)nc1NC(=O)N1CC2(CCNCC2)C1 [Compound 220] | > 5
14 | Nc1ccc(-c2cccnc2)nc1NC(=O)N1CCCC1 [Compound 221] | > 5
15 | COc1cccc(CN2CCCC3(CCN(C(=O)Nc4nc(-c5ccc(F)cc5)ccc4N)C3)C2)c1 (stereo not shown) [Compound 222] | > 5
16 | Cn1cc(CN2CCCC3(CCC(C(=O)Nc4nc(-c5ccc(F)cc5)ccc4N)C3)C2)cn1 (stereo not shown) [Compound 223] | > 5
17 | Nc1ccc(-c2ccc(F)cc2)nc1NC(=O)N1CCN2CCCC2C1 (stereo not shown) [Compound 224] | > 5
18 | Nc1ccc(-c2ccc(F)cc2)nc1NC(=O)N1CCN(C(=O)C2C[C@H]2c2ccccc2)CC1 (stereo partly shown) [Compound 225] | 0.5 to 5
19 | Cc1cnc(C(=O)Nc2nc(-c3ccc(F)cc3)ccc2N)s1 [Compound 226] | 0.1 to 0.5
20 | Nc1ccc(-c2ccc(OC(F)F)cc2)nc1NC(=O)N1Cc2nccnc2C1 [Compound 228] | 0.5 to 5
21 | Nc1ccc(-c2ccc(OC(F)F)cc2)nc1NC(=O)N1CCCC1 [Compound 232] | 0.5 to 5
22 | Nc1ccc(-c2ccc(F)cc2)nc1NC(=O)N1CC2CN(CC3CCOCC3)CC2C1 (stereo not shown) [Compound 235] | > 5
23 | Nc1ccc(-c2ccc(F)cc2)nc1NC(=O)N1CC2CN(C3CCOCC3)CC2C1 (stereo not shown) [Compound 236] | > 5
24 | CN(C1CCOC1)C1CC2CN(C(=O)Nc3nc(-c4ccc(F)cc4)ccc3N)CC2C1 (stereo not shown) [Compound 237] | > 5
25 | Nc1ccc(-c2ccc(F)cc2)nc1NC(=O)N1C[C@@H]2[C@@H](CO)[C@@H]2C1 [Compound 238] | 0.5 to 5
26 | Nc1ccc(-c2ccc(F)cc2)nc1NC(=O)C1[C@H]2CN(C3COC3)C[C@@H]12 (stereo partly shown) [Compound 239] | > 5
27 | Nc1ccc(-c2ccc(F)cc2)nc1NC(=O)N1Cc2cnc(C3CCOCC3)cc2C1 [Compound 240] | 0.1 to 0.5

Row | Structure (SMILES) | IC50 [µM]
28 | CN1CC(N2C[C@@H]3C(C(=O)Nc4nc(-c5ccc(F)cc5)ccc4N)[C@@H]3C2)C1 (stereo partly shown) [Compound 241] | > 5
29 | CN(C)[C@H]1[C@@H]2CN(C(=O)Nc3nc(-c4ccc(F)cc4)ccc3N)C[C@@H]21 [Compound 242] | > 5
30 | CN1CC(Cn2ncc3c2CN(C(=O)Nc2nc(-c4ccc(F)cc4)ccc2N)C3)C1 [Compound 244] | 0.5 to 5
31 | CN1CC(Cn2cc3c(n2)CN(C(=O)Nc2nc(-c4ccc(F)cc4)ccc2N)C3)C1 [Compound 245] | 0.1 to 0.5
32 | CN1CC(n2ncc3c2CN(C(=O)Nc2nc(-c4ccc(F)cc4)ccc2N)C3)C1 [Compound 246] | > 5
33 | CN1CC(n2cc3c(n2)CN(C(=O)Nc2nc(-c4ccc(F)cc4)ccc2N)C3)C1 [Compound 247] | 0.1 to 0.5
34 | CN(C1COC1)C1CC2CN(C(=O)Nc3nc(-c4ccc(F)cc4)ccc3N)CC2C1 (stereo not shown) [Compound 248] | 0.5 to 5
35 | Nc1ccc(-c2ccc(F)cc2)nc1NC(=O)N1Cc2cccc(N3CCCC3)c2C1 [Compound 249] | > 5
36 | CN1CCC(c2cnc3c(c2)CN(C(=O)Nc2nc(-c4cccs4)ccc2N)C3)CC1 [Compound 250] | 0.1 to 0.5
37 | CN1CCC(c2cnc3c(c2)CN(C(=O)Nc2nc(-c4ccc(F)cc4)ccc2N)C3)CC1 [Compound 252] | 0.1 to 0.5
38 | Nc1ccc(-c2ccc(F)cc2)nc1NC(=O)N1Cc2cc(N3CCC3)cnc2C1 [Compound 254] | 0.5 to 5
39 | Nc1ccc(-c2ccc(F)cc2)nc1NC(=O)N1Cc2cc(C3CC3)cnc2C1 [Compound 255] | 0.1 to 0.5
40 | CN1CC(CN2CC3CC(C(=O)Nc4nc(-c5ccc(F)cc5)ccc4N)CC3C2)C1 (stereo not shown) [Compound 256] | 0.5 to 5
41 | Cn1ncc2c1CN(C(=O)Nc1nc(-c3ccc(F)cc3)ccc1N)C2 [Compound 258] | 0.5 to 5
42 | Nc1ccc(-c2ccc(F)cc2)nc1NC(=O)N1Cc2cccc(F)c2C1 [Compound 259] | 0.1 to 0.5
43 | COc1cc2c(cn1)CN(C(=O)Nc1nc(-c3ccc(F)cc3)ccc1N)C2 [Compound 260] | 0.1 to 0.5
44 | Cc1cc(F)ccc1-c1ccc(N)c(NC(=O)N2Cc3cnc(CN(C)C)cc3C2)n1 [Compound 261] | > 5
45 | CN(C1COC1)[C@H]1[C@@H]2CN(C(=O)Nc3nc(-c4ccc(F)cc4)ccc3N)C[C@@H]21 [Compound 262] | > 5
46 | Nc1ccc(-c2ccc(F)cc2)nc1NC(=O)C1[C@H]2CN(C3CCOCC3)C[C@@H]12 (stereo partly shown) [Compound 264] | > 5
47 | CN1CCC(c2cnc3c(c2)CN(C(=O)Nc2nc(-c4cccnc4)ccc2N)C3)CC1 [Compound 265] | 0.5 to 5
48 | Nc1ccc(-c2ccc(F)cc2)nc1NC(=O)N1Cc2cc(CN3CC(F)(F)C3)cnc2C1 [Compound 266] | 0.5 to 5
49 | Nc1ccc(-c2ccc(F)cc2)nc1NC(=O)N1C[C@@H]2[C@H](C1)[C@H]2NC1COC1 [Compound 267] | > 5
50 | CN1CC(CN2C[C@@H]3[C@H](C2)[C@H]3C(=O)Nc2nc(-c3ccc(F)cc3)ccc2N)C1 [Compound 268] | > 5
51 | CN1CCN(C[C@@H]2[C@H]3CN(C(=O)Nc4nc(-c5ccc(F)cc5)ccc4N)C[C@@H]23)CC1 [Compound 269] | > 5
52 | Nc1ccc(-c2ccc(F)cc2)nc1NC(=O)N1C[C@@H]2[C@@H](CN3CCC3)[C@@H]2C1 [Compound 270] | > 5

Row | Structure (SMILES) | IC50 [µM]
53 | Nc1ccc(-c2ccc(F)cc2)nc1NC(=O)N1Cc2cc(CN3CCC3)cnc2C1 [Compound 272] | 0.1 to 0.5
54 | Nc1ccc(-c2ccc(F)cc2)nc1NC(=O)N1Cc2cc(CN3CCC(F)(F)C3)cnc2C1 [Compound 273] | 0.1 to 0.5
55 | CC(C)Cc1cnc2c(c1)CN(C(=O)Nc1nc(-c3ccc(F)cc3)ccc1N)C2 [Compound 274] | 0.1 to 0.5
56 | Nc1ccc(-c2ccc(F)cc2)nc1NC(=O)N1Cc2cc(CN3CC(F)C3)cnc2C1 [Compound 275] | 0.1 to 0.5
57 | COC[C@@H]1[C@H]2CN(C(=O)Nc3nc(-c4ccc(F)cc4)ccc3N)C[C@@H]12 [Compound 276] | 0.5 to 5
58 | Nc1ccc(-c2ccc(F)cc2)nc1NC(=O)N1Cc2cncnc2C1 [Compound 277] | 0.5 to 5
59 | Nc1cn(-c2ccccc2)nc1NC(=O)N1Cc2ccc(CO)cc2C1 [Compound 350] | 0.5 to 5
60 | CN(C)Cc1ccc2c(c1)CN(C(=O)Nc1nn(-c3ccccc3)cc1N)C2 [Compound 351] | 0.1 to 0.5
61 | CN1CCN(c2ccc3c(c2)CN(C(=O)Nc2nn(-c4ccccc4)cc2N)C3)CC1 [Compound 352] | 0.5 to 5
62 | CN1CCN(Cc2ccc3c(c2)CN(C(=O)Nc2nn(-c4ccccc4)cc2N)C3)CC1 [Compound 353] | 0.5 to 5
63 | CN1CCC(C(=O)Nc2nn(-c3ccccc3)cc2N)CC1 [Compound 354] | > 5
64 | Nc1cn(-c2ccccc2)nc1NC(=O)N1CCN(C2COC2)CC1 [Compound 356] | > 5
65 | Nc1cn(-c2ccccc2)nc1NC(=O)N1CCNCC1 [Compound 357] | > 5
66 | CC(=O)N1CCC(C(=O)Nc2nn(-c3ccccc3)cc2N)CC1 [Compound 358] | > 5
67 | Nc1cn(-c2ccccc2)nc1NC(=O)C1CCN(C2COC2)CC1 [Compound 359] | > 5
68 | CC(=O)N1CCN(C(=O)Nc2nn(-c3ccccc3)cc2N)CC1 [Compound 360] | > 5
69 | CN1CCN(C(=O)Nc2nn(-c3ccccc3)cc2N)CC1 [Compound 361] | > 5
70 | COC1CCN(Cc2ccc3c(c2)CN(C(=O)Nc2nc(-c4ccc(F)cc4)ccc2N)C3)C1 (stereo not shown) [Compound 363] | 0.1 to 0.5
71 | Nc1ccc(-c2ccc(F)cc2)nc1NC(=O)N1CCC(F)(F)C1 [Compound 364] | 0.5 to 5
72 | CN(C)Cc1ccc2c(c1)CN(C(=O)Nc1nc(-c3ccco3)ccc1N)C2 [Compound 365] | 0.1 to 0.5
73 | Nc1ccc(-c2ccc(F)cc2)nc1NC(=O)N1Cc2ccc(CO)cc2C1 [Compound 366] | 0.1 to 0.5
74 | CN1CCN(Cc2ccc3c(c2)CN(C(=O)Nc2nc(-c4ccc(F)cc4)ccc2N)C3)CC1 [Compound 367] | 0.1 to 0.5
75 | CN1CCC(N2CCC(C(=O)Nc3nc(-c4ccc(F)cc4)ccc3N)CC2)CC1 [Compound 368] | 0.5 to 5
76 | Nc1ccc(-n2cccn2)nc1NC(=O)N1Cc2ccncc2C1 [Compound 369] | 0.5 to 5
